The values below come from patent US20210171568A1, “CRYSTALLINE FORMS OF SELECTIVE PROGESTERONE RECEPTOR MODULATOR, PROCESSES FOR PREPARATION THEREOF” (Crystal Pharmaceutical (Suzhou) Co., Ltd., priority 2017, published 2021).

Holding throughout (type): physicochemical
Data set [1] is described as follows: Physical stability on storage (crystalline form by XRPD before and after storage). Here is the method:
(§1) Samples of Form CS2, Form CS4 and the prior art amorphous were stored under condition of 25° C./60% RH (open). Crystalline form and chemical impurity were tested.
(§2) Samples of Form CS2, Form CS4 and the prior art amorphous were stored under condition of 40° C./75% RH (open). Crystalline form and chemical impurity were tested.
(§3) Samples of Form CS2, Form CS4 and the prior art amorphous were stored under condition of 60° C./75% RH (open). Crystalline form and chemical impurity were tested.

Data set [2] can be described thus: Hygroscopicity by dynamic vapor sorption (DVS). To be noted: for Weight gain under 80% Relative Humidity (Hygroscopicity): DVS, 25° C., 80% RH, about 10 mg of sample; for hygroscopicity as share of that of the prior art solid: relative to prior art solid, weight gain at 80% RH. Here is the method: Dynamic Vapor Sorption (DVS) was collected via an SMS (Surface Measurement Systems Ltd.) intrinsic DVS instrument. Its control software is DVS-Intrinsic control software, and its analysis software is DVS-Intrinsic Analysis software. Typical Parameters for DVS test are as follows: • Temperature: 25° C. • Gas and flow rate: N2, 200 mL/min • dm/dt: 0.002%/min • RH range: 0% RH to 95% RH
Dynamic vapor sorption (DVS) was applied to test hygroscopicity of Form CS2, Form CS4 and the prior art amorphous with about 10 mg of samples.

The nature of another data set: Residual solvents test. On the procedure: Residual solvents of Form CS2, Form CS4 and the prior art amorphous were tested. […] According to the guideline of the International Council for Harmonization (ICH) on residual solvents, dichloromethane belongs to Class 2 solvents, and the residual solvent content must not exceed 600 ppm. It can be seen that the residue of dichloromethane in the amorphous solid is much higher than the limits of ICH guideline, and the amorphous not suitable for use as drug substance.

The nature of data set [3]: Chemical stability on storage (purity / chemical impurity). Conditions: for Change of Purity: versus initial purity. Here is the method: as §1, §2, §3
Data set [4] is described as follows: Particle size distribution. Conditions: in Isopar G containing 0.2% lecithin. On the procedure:
Form CS2 and Form CS4 of the present disclosure were added into 10 mL of Isopar G (containing 0.2% lecithin). The mixture was mixed thoroughly and transferred into the SDC. The measurement was started when the sample amount indicator is in appropriate position. The average particle diameter calculated by volume, the diameter at which 10% mass is comprised of smaller particles, the diameter at which 50% mass is comprised of smaller particles and the diameter at which 90% mass is comprised of smaller particles were obtained in particle size distribution test. Subsequently, the particle size distribution plot of crystalline forms was obtained.
MV: Average particle diameter calculated by volume.
D10: the size in microns below which 10 percent of the particles reside on a volume basis.
D50: the size in microns below which 50 percent of the particles reside on a volume basis, also known as the median diameter.
D90: the size in microns below which 90 percent of the particles reside on a volume basis.

[5] abbreviates: 60° C./75% RH (open), 2 weeks, listed as prior art amorphous.

Entries after “also recorded” stand apart in the source; their conditions may differ. Like-named read-outs stand apart in the source and are kept apart here.

Take `C[C@]12C[C@H](c3ccc(S(C)(=O)=O)cc3)C3=C4CCC(=O)C=C4CC[C@H]3[C@@H]1CC[C@@]2(O)C(F)(F)C(F)(F)F` [Amorphous, (11β, 17β)-17-hydroxy-11-[4-(methylsulfonyl)phenyl]-17-(pentafluoroethyl)estra-4,9-diene-3-one, reference compound]: the “Solid Form after Storage” value in data set [1] (25° C./60% RH (open), 6 months) was “Amorphous”; in data set [1] (40° C./75% RH (open), 6 months), “Amorphous + Form CS2”; in data set [1] (40° C./75% RH (open), 6 months, listed as prior art amorphous), “partially converted to Form CS2”; in data set [1] (40° C./75% RH (open), 6 months, listed as prior art solid), “partially converts to Form CS2”; in data set [1] (60° C./75% RH (open), 2 weeks), “Amorphous + Form CS2”; in data set [1] (setting [5]), “partially converted to Form CS2”. In addition, the “Solid Form after Storage” value in data set [1] (60° C./75% RH (open), 2 weeks, listed as prior art solid) was “partially converts to Form CS2”. For the same compound, the “Weight gain under 80% Relative Humidity (Hygroscopicity)” value (from here on “Weight gain under 80% Relative Humidity”) in data set [2] was 1.89%; in data set [2] (listed as prior art solids), “up to 1.89%”. Moreover, the “Residual solvents (in words)” value in “Residual solvents test” is on record as “significantly higher than specification”; in the data set “Residual solvents test” (listed as prior art) it was “exceeds the standard”. For the same compound, the dichloromethane residue in the data set “Residual solvents test” (ICH limit 600 ppm) is 64185 ppm. Further, the “Purity after 6 Months” value in data set [3] (25° C./60% RH (open), 6 months) came to 97.88%. Moreover, the “Change of Purity” value was found to be 0.80% in data set [3] (25° C./60% RH (open), 6 months); 0.80% in data set [3] (25° C./60% RH (open), 6 months, listed as amorphous); 0.80% in data set [3] (25° C./60% RH (open), 6 months, listed as prior art amorphous); 1.08% in data set [3] (40° C./75% RH (open), 3 months); 1.08% in data set [3] (40° C./75% RH (open), 3 months, listed as amorphous); 1.08% in data set [3] (40° C./75% RH (open), 3 months, listed as prior art amorphous). Moreover, the “Change of Purity” value in data set [3] (60° C./75% RH (open), 2 weeks) was found to be 0.98%; in data set [3] (60° C./75% RH (open), 2 weeks, listed as amorphous), 0.98%; in data set [3] (setting [5]), 0.98%. In data set [3] (25° C./60% RH, 40° C./75% RH and 60° C./75% RH), the “stability on storage (in words)” value is “unstable”. Moreover, in data set [3] (40° C./75% RH (open), 3 months), the “Purity after 3 Months” value turned out to be 97.60%. Moreover, the “Purity after 2 Weeks” value in data set [3] (60° C./75% RH (open), 2 weeks) is 97.70%.
As for `C[C@]12C[C@H](c3ccc(S(C)(=O)=O)cc3)C3=C4CCC(=O)C=C4CC[C@H]3[C@@H]1CC[C@@]2(O)C(F)(F)C(F)(F)F` [Form CS2, (11β, 17β)-17-hydroxy-11-[4-(methylsulfonyl)phenyl]-17-(pentafluoroethyl)estra-4,9-diene-3-one], the “Solid Form after Storage” value in data set [1] (25° C./60% RH (open), 6 months) is “remain unchanged; also recorded: Form CS2”. Moreover, the “Solid Form after Storage” value in data set [1] (40° C./75% RH (open), 6 months) is on record as “remain unchanged; also recorded: Form CS2”. Moreover, in data set [1] (60° C./75% RH (open), 2 weeks), the “Solid Form after Storage” value is reported as “remain unchanged; also recorded: Form CS2”. Moreover, in data set [2], the “Weight gain under 80% Relative Humidity” value amounted to 0.23% and the “hygroscopicity as share of that of the prior art solid” value is “less than 15%”. Moreover, the “Residual solvents (in words)” value in the data set “Residual solvents test” was “almost no residual solvent”. Moreover, in data set [3] (25° C./60% RH (open), 6 months), the “Purity after 6 Months” value is on record as 98.58% and the “Change of Purity” value turned out to be 0.06%. In addition, the “Change of Purity” value in data set [3] (25° C./60% RH (open), 6 months, listed as CS2) is 0.06%. Further, in data set [3] (40° C./75% RH (open), 3 months), the “Purity after 3 Months” value worked out at 98.37% and the “Change of Purity” value is 0.27%. For the same compound, the “Change of Purity” value in data set [3] (40° C./75% RH (open), 3 months, listed as CS2) came to 0.27%. For the same compound, in data set [3] (60° C./75% RH (open), 2 weeks), the “Purity after 2 Weeks” value is reported as 98.59% and the “Change of Purity” value was 0.05%. Also, the “Change of Purity” value in data set [3] (60° C./75% RH (open), 2 weeks, listed as CS2) turned out to be 0.05%. For the same compound, in data set [4], the D10 amounted to 3.09 μm; the D50 is on record as 8.41 μm; the D90 is 27.45 μm; the “MV, average particle diameter calculated by volume” value is listed as 13.16 μm.
Regarding `C[C@]12C[C@H](c3ccc(S(C)(=O)=O)cc3)C3=C4CCC(=O)C=C4CC[C@H]3[C@@H]1CC[C@@]2(O)C(F)(F)C(F)(F)F` [Form CS4, (11β, 17β)-17-hydroxy-11-[4-(methylsulfonyl)phenyl]-17-(pentafluoroethyl)estra-4,9-diene-3-one], the “Solid Form after Storage” value in data set [1] (25° C./60% RH (open), 6 months) is given as “remain unchanged; also recorded: Form CS4”. Moreover, the “Solid Form after Storage” value in data set [1] (40° C./75% RH (open), 6 months) is “remain unchanged; also recorded: Form CS4”. Moreover, the “Solid Form after Storage” value in data set [1] (60° C./75% RH (open), 2 weeks) is “remain unchanged; also recorded: Form CS4”. Moreover, in data set [2], the “Weight gain under 80% Relative Humidity” value is 0.12% and the “hygroscopicity as share of that of the prior art solid” value is “less than 10%”. For the same compound, in “Residual solvents test”, the “Residual solvents (in words)” value is “almost no residual solvent”. Besides, in data set [3] (25° C./60% RH (open), 6 months), the “Purity after 6 Months” value was 99.31% and the “Change of Purity” value stood at 0.13%. The “Change of Purity” value in data set [3] (25° C./60% RH (open), 6 months, listed as CS4) worked out at 0.13%. Also, in data set [3] (40° C./75% RH (open), 3 months), the “Purity after 3 Months” value is given as 99.42% and the “Change of Purity” value is given as 0.02%. The “Change of Purity” value in data set [3] (40° C./75% RH (open), 3 months, listed as CS4) is reported as 0.02%. For the same compound, in data set [3] (60° C./75% RH (open), 2 weeks), the “Purity after 2 Weeks” value is 99.47% and the “Change of Purity” value amounted to 0.03%. In data set [3] (60° C./75% RH (open), 2 weeks, listed as CS4), the “Change of Purity” value is reported as 0.03%. Also, in data set [4], the D10 is 2.32 μm; the D50 was determined as 6.20 μm; the D90 was 23.12 μm; the “MV, average particle diameter calculated by volume” value is on record as 11.41 μm.
